Source: patent publication US20240408119A1, “DELIVERY OF THERAPEUTIC ALKALOID COMPOUNDS” (priority 2022, published 2024)
Read-outs that look alike come from different tables or passages of the source.

Type: in vitro ADME, mouse
Conditions: prodrug remaining, 5 μM, 37° C.
Protocol: Each test was carried out in duplicate for each time point; 0 min, 15 min, 30 min, 60 min, 120, 240 min. […]

SMILES: COc1ccc([C@@]23CCC(OP4(=O)OCC(C)(C)CO4)=C[C@@H]2N(C)CC3)cc1OC [Compound 323, 2-[[(3aS,7aS)-3a-(3,4-dimethoxyphenyl)-1-methyl-3,4,5,7a-tetrahydro-2H-indol-6-yl]oxy]-5,5-dimethyl-1,3,2λ^5-dioxaphosphinane 2-oxide]
- Mouse Plasma Prodrug (%) (0 min): 100.0%
- Mouse Plasma Prodrug (%) (15 min): >99%
- Mouse Plasma Prodrug (%) (30 min): >99%
- Mouse Plasma Prodrug (%) (60 min): 94.1%
- Mouse Plasma Prodrug (%) (120 min): 71.9%
- Mouse Plasma Prodrug (%) (240 min): 50.3%
